# Positions of bridges follow the written chain, without caps; N, C: chain ends. Non-standard residues stand in square brackets, D forms with d. No end group written: not given here. hArg = N=C(N)NCCCC[C@H](N)C(=O)O; Cit = NC(=O)NCCC[C@H](N)C(=O)O
# Experiments:
# [1] = tested on: murine E^k MHC class II allele; assay: antigenic peptide prepulse assay, E^k allele (fixed APC prepulsed with PGCC81-104); type: cell-based; details: AE peptide 64 μM; for Activity in antigenic peptide prepulse assay, E^k (baseline = 1.00): Table 25, prepulse 2.5 μM antigenic peptide, supernatant 1:10; for Activity in antigenic peptide prepulse assay, E^k (baseline = 1.0): prepulse 1.25 μM antigenic peptide
# Experimental: (§1) In a second type of assay, the “peptide prepulse assay”, the antigenic peptide is incubated with paraformaldehyde-fixed APC for 6 h. The APC are washed and incubated for 24 h with the AE101 series homolog and the T cell hybridoma specific for the antigenic peptide. After that incubation, an aliquot of the culture supernatant is transferred to a second culture to measure the relative degree of T hybridoma stimulation, as reflected in the effect of released interleukins on the growth of an interleukin-dependent, indicator cell line, as described above.
# (§2) The two above described assays measure different aspects of the molecular mechanism of the AE101 series of peptides. In the “simultaneous assay”, AE101 series peptides are thought to induce the release of endogenously bound peptides and to permit the binding of the second, specific antigenic peptide which is relatively abundant in the culture fluid. The AE101 series peptides enhance antigenic peptide-specific T cell responses in simultaneous assays. In the “peptide prepulse” assay, the specific antigenic peptide becomes bound to MHC class II molecules on the surface of the fixed APC during the 6 h prepulse incubation. The effect of the AE101 series homologs is then thought to release that antigenic peptide, resulting in an apparent suppression of the immune response.
# (§3) The AE101 series peptides are thought to contact the MHC class II molecules at a discrete site outside the antigenic peptide-binding groove. AE101 peptide binding to this “Ii-KEY” site is thought to induce a conformational change in the MHC class II molecules accelerating the dissociation of previously bound antigenic peptide. […] The AE101 series peptides thus inhibit antigenic peptide-specific T cell responses in the “peptide prepulse” assays.
# (§4) Antigenic peptide-specific T cell activation was measured by the following procedure. Mitomycin C-treated A20 cells (A^dE^d) or CH27 cells APC (A^kE^k) were generated by incubating 5×10^6 cells/mL for 20 min at 37° C. with 0.025 mg/mL of mitomycin C (Sigma) in Dulbecco's Modified Eaglel's Medium (DMEM)/10 mM N-2(hydroxyethylpiperazine-N″[2-ethanesulfonic acid] (HEPES), followed by two washes with four volumes of DMEM-5% fetal calf serum (FCS), 10 mM HEPES. Fixed APC were generated by treating 1×10^6 cells/mL for 5 min with 0.5% paraformaldehyde in PBS (pH 7.2), followed by two washes with four volumes of DMEM-10% FCS, 10 mM HEPES. T cell hybridomas were irradiated 2200 rads before each assay.
# (§5) The “peptide prepulse assay” was carried out under essentially the same conditions as described for the “simultaneous assay” with the following modifications. Fixed APC were first incubated for 6 h at 1×10^6 cells/mL in complete DMEM-5% FCS in 24-well microculture plates (1 mL/well) with antigenic peptide, followed by four washes with 10 volumes of DMEM-5% FCS. The cells were then exposed to varying concentrations of AE101 series peptide (64 μM, 16 μM, 4 μM, and 1 μM) for 24 h in the presence of the T cell hybridoma specific to the antigenic peptide. Interleukin release from these cultures was measured by proliferation of HT-2 cells to interleukins in supernatants transferred from the primary culture. Generally, a single dose of 64 μM of each AE101 series peptide was used. The baseline T cell response was measured by culturing T hybridoma cells with the antigenic peptide-prepulsed APC in the absence of AE101 series peptides.
# Table 19: Activities of C-terminal truncation analogs of AE101 in an antigenic peptide prepulse assay. […] Paraformaldehyde-treated APC (fixed APC) expressing MHC class II molecules were incubated with antigenic peptide for 6 h (HEL106-116 for E^d and PGCC81-104 for E^k). After this incubation, the prepulsed APC were washed and cultured with T hybridoma cells and AE101 series peptides. The antigenic peptide concentration during the prepulse was 12 μM for Ed and 20 μM for E^k. The AE101 series peptide concentrations were 64 μM for E^d and 16 μM for E^k. […]
# [2] = target: T1, murine E^d MHC class II allele (Mus musculus, UniProt P01904+P01915); assay: antigenic peptide prepulse assay, E^d allele (fixed APC prepulsed with HEL106-116); type: cell-based; design: The A20 and CH27 B cell lymphoma lines express H-2^d and H-2^k alleles, respectively; endogenous in cells; host or cells: A20 B cell lymphoma (mitomycin C-treated or paraformaldehyde-fixed); details: AE peptide 64 μM, prepulse 24 μM antigenic peptide; for Activity in antigenic peptide prepulse assay, E^d (baseline = 1.00): Table 25
# T1 sequence (P01904 26-255): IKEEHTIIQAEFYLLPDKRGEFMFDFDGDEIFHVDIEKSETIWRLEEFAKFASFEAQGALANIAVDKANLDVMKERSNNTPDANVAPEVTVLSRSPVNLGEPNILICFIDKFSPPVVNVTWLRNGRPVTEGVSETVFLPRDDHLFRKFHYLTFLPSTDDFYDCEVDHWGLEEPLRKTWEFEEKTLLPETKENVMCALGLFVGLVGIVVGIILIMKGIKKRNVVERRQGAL
# T1 sequence (P01915 27-264 limits assumed): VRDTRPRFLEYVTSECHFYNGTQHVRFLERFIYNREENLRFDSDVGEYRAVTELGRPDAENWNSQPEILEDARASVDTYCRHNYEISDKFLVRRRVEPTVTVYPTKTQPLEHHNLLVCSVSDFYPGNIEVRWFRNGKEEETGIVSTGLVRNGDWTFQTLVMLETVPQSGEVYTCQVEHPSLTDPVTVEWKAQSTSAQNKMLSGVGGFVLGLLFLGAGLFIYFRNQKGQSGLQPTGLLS
# Experimental: as §1, §2, §3, §4, §5
# […] […] Paraformaldehyde-treated APC (fixed APC) expressing MHC class II molecules were incubated with antigenic peptide for 6 h (HEL106-116 for E^d and PGCC81-104 for E^k). After this incubation, the prepulsed APC were washed and cultured with T hybridoma cells and AE101 series peptides. […] The AE101 series peptide concentrations were 64 μM for E^d and 16 μM for E^k. The dilutions of supernatant taken into the HT-2 cell assay were 1:4 for Ed and 1:2 for E^k.
Substance,"Activity in antigenic peptide prepulse assay, E^k (baseline = 1.0) ([1]; Table 26, supernatant 1:8)","Activity in antigenic peptide prepulse assay, E^d (baseline = 1.0) ([2]; Table 26, supernatant 1:2)",other results
Ac-A[Cit]NKNPK-NH2 [AE351],,,"Activity in antigenic peptide prepulse assay, E^k (baseline = 1.00) [1]: 0.90; Activity in antigenic peptide prepulse assay, E^d (baseline = 1.00) ([2]; supernatant 1:4): 0.42"
Ac-FK HArg MYP Cit-NH2 [AE371],0.99,0.90,
Ac-LK HArg KYPK-NH2 [AE363],0.97,0.60,
Ac-LKMKYPK-NH2 [AE362],0.91,0.76,
Ac-LR HArg KYP Cit-NH2 [AE366],0.94,0.44,
Ac-LR HArg MYPK-NH2 [AE365],0.42,0.70,
Ac-LR Orn K HArg PK-NH2 [AE340],,,"Activity in antigenic peptide prepulse assay, E^k (baseline = 1.00) [1]: 0.83; Activity in antigenic peptide prepulse assay, E^d (baseline = 1.00) ([2]; supernatant 1:4): 0.10"
Ac-LRLKYPN-NH2 [AE368],0.92,0.55,
Ac-LRMKLPK (lactam 4-C) [AE382],,,"Activity in antigenic peptide prepulse assay, E^k (baseline = 1.0) ([1]; Table 28, supernatant 1:4): 0.70; Activity in antigenic peptide prepulse assay, E^d (baseline = 1.0) ([2]; Table 28, supernatant 1:4): 0.52"
Ac-LRMKNPF-NH2 [AE350],,,"Activity in antigenic peptide prepulse assay, E^k (baseline = 1.00) [1]: 0.86; Activity in antigenic peptide prepulse assay, E^d (baseline = 1.00) ([2]; supernatant 1:4): 0.82"
Ac-LRMKYPN-NH2 [AE370],0.58,0.74,
Ac-LRMKYP[Cit]-NH2 [AE364],0.93,0.34,
Ac-LRMMYP[Cit]-NH2 [AE367],0.99,1.10,
Ac-L[hArg]LKYPK-NH2 [AE361],1.00,0.83,
Ac-L[hArg]MKYPK-NH2 [AE360],0.94,0.91,
"cyclic LRMKLPK (bridge (positions not given here); also: cyclic, ring type not given here) [AE381, “head-to-tail” cyclization from the amino-terminus to the carboxyl-terminus of AE114]",,,"Activity in antigenic peptide prepulse assay, E^k (baseline = 1.0) ([1]; Table 28, supernatant 1:4): 0.28; Activity in antigenic peptide prepulse assay, E^d (baseline = 1.0) ([2]; Table 28, supernatant 1:4): 0.19"

# From US6835382B2, “Ii peptide therapeutics to enhance antigen presentation” (University of Massachusetts, priority 1996, dated 2004)
